Experimental data reported in ChEMBL document CHEMBL1137815, “New cadinene sesquiterpenoids from the Formosan soft coral Xenia puerto-galerae” (2002).
Converted amounts (≈) assume the structure as drawn.

How the values were obtained:
[1] = system: A549; assay: Cytotoxicity against human A549 cells by MTT method; assay type: functional; conditions: read-out: ED50 (the source's name)
[2] = system: P388; assay: Cytotoxicity against mouse P388 cells by MTT method; assay type: functional; conditions: read-out: ED50 (the source's name)

SMILES | EC50 [1] [µg/mL] | EC50 [2] [µg/mL]
C=C(C)[C@@H]1C(=O)C=C(C)[C@]2(O)CC[C@H](C)C[C@@H]12 [XENITORIN E] | 1.86 (≈ 7.94 µM) | 3.69 (≈ 15.7 µM)
C=C(C)[C@@H]1C(=O)C=C(C)[C@@H]2CC[C@H](C)C[C@@H]12 [XENITORIN B] | > 50 | > 50
C=C(C)[C@H]1[C@@H]2C[C@@H](C)CC[C@H]2C(C)=C[C@H]1O [XENITORIN A] | 0.79 (≈ 3.59 µM) | 
C=C(C)[C@@H]1C(=O)C=C(C)[C@@]2(O)CC[C@H](C)C[C@@H]12 [XENITORIN F] | > 50 | > 50
C=C(C)[C@@H]1[C@H](O)[C@@H]2O[C@]2(C)[C@@H]2CC[C@H](C)C[C@@H]12 [XENITORIN D] | > 50 | > 50
C=C(C)[C@@H]1C=C[C@](C)(O)[C@@H]2CC[C@H](C)C[C@H]21 [XENITORIN C] | > 50 | > 50
